Legend:
CYP2C19 = assay: In vitro cocktail CYP450 activity assay in rat liver microsomes, CYP2C19 (omeprazole probe)
Method: (§1) (OHBUP-[D6]) and 5 nM 4′-hydroxydiclofenac-[^13C6] (OHDIC-[^13C6]) as internal standards (ISs). […]
(§2) standard addition experiments. Each group included four concentration levels. For the PK […]
(§3) The probe compounds, viz. […]
(§4) chosen after incubating all the recruited substrates. In order to assure the linear relationship […]
(§5) The incubation system was also optimized in terms of substrate concentrations. The substrates concentrations of […]

CYP1A2 = biological target: T1, CYP1A2 (Rattus norvegicus, UniProt P04799); assay: In vitro cocktail CYP450 activity assay in rat liver microsomes, CYP1A2 (phenacetin probe)
T1 sequence (P04799 1-513): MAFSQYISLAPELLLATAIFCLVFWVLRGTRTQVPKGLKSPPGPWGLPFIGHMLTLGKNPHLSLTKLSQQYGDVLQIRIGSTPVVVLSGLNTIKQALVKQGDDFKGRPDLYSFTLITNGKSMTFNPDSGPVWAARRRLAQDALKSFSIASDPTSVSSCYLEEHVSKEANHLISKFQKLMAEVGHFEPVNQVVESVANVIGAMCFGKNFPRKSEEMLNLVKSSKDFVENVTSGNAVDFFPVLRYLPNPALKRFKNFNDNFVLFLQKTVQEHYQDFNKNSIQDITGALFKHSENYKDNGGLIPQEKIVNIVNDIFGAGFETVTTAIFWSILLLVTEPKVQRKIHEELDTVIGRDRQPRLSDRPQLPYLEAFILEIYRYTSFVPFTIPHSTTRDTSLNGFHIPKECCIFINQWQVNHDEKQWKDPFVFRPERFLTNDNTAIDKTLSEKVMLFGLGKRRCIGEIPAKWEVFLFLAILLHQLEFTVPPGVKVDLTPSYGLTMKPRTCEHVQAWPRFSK
Method: as §1, §2, §3, §4, §5

CYP2C9 = assay: In vitro cocktail CYP450 activity assay in rat liver microsomes, CYP2C9 (tolbutamide probe)
Method: as §1, §2, §3, §4, §5

CYP2D6 = assay: in vitro; conditions: Sprague-Dawley, rat
Method: as §1, §2, §3, §4, §5

CYP2B6 = assay: In vitro cocktail CYP450 activity assay in rat liver microsomes, CYP2B6 (bupropion probe)
Method: as §1, §2, §3, §4, §5

CYP3A4 = assay: in vitro; conditions: Sprague-Dawley, rat, pH 7.4
Method: as §1, §2, §3, §4, §5

CYP2E1 [1] = biological target: T2, CYP2E1 (Rattus norvegicus, UniProt P05182); conditions: at the Cmax level in rat plasma, calculated from the dose–response curve
T2 sequence (P05182 whole entry): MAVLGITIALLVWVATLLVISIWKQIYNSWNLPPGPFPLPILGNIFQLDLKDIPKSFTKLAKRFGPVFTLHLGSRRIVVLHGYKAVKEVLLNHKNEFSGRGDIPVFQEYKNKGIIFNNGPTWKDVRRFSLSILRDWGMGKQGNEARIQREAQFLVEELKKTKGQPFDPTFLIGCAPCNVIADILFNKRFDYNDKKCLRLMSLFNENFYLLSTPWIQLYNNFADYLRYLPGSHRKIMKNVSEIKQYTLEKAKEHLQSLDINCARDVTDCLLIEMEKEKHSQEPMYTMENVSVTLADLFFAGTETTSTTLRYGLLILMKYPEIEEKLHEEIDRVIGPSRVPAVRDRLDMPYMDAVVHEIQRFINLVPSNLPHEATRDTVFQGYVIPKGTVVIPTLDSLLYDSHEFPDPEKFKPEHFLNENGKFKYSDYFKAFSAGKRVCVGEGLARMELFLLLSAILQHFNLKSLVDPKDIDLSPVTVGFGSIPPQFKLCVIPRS
Method: (§6) For the cocktail assay, the activity is expressed as the percentage of activity remaining comparing with that of a control sample containing no inhibitor. […] All the data were described as mean ± standard deviation (SD). Normality assumptions were tested by the Kolmogorov–Smirnov statistic setting p = 0.10 as the limit for rejection of the null hypothesis of normality. If the distribution of the data was normal with equal variances, a two-sided test was performed at the 5% level of significance. The Welch’s correction was then applied when the underlying variances were not equal. When the assumption of normality must be rejected, the Mann-Whitney test, a non-parametric equivalent of the independent-measures t-test, was used.

in vivo = assay: in vivo; set-up: species or system Sprague-Dawley (SD) rats; conditions: Sprague-Dawley, plasma, rat
Method: At each time, 0.5 mL of blood was collected in the heparin sodium tubes. Plasma was separated by centrifugation at 4000 rpm for 10 min and stored below −80 °C until bioanalysis. Oasis PRiME HLB SPE cartridges (1 cc/30 mg, Waters, Milford, MA, USA) were used to process the plasma samples (Supplementary Materials).
The generic layout of instrumentation setup of the LVDI-UHPLC-MS/MS was conducted on a Shimadzu UHPLC system consisting of two LC-20ADXR pumps, a DGU-20A3R degasser, and a CBM-20A controller (Kyoto, Japan) with a SCIEX 4500 QTRAP mass spectrometer mounted with an electron spray ionization (ESI) interface as well as an electronic 6-port/2-channel valve (Foster City, CA, USA). Analyst software package (version 1.6.2, SCIEX) was implemented to control and synchronize the entire system, and also for data acquisition and processing. A single analytical run was fragmented into two phases, namely, loading and elution phases, by switching the electronic valve (Figure 2). At the loading phase, the valve was maintained at A-channel. The specimen aliquot of large volume delivered from the auto-sampler was captured onto a guard column. Meanwhile, the pumps were responsible for delivering the mobile phase at a high flow rate, aiming to dilute the sample solvent, thus facilitating the candidate constituents to concentrate on the pre-guard column. Then, the valve was automatically switched to the B-channel to trigger the elution phase. The trapped components were flushed from the pre-guard column into an analytical column, and underwent multiple reaction monitoring (MRM) analysis on the optimized LC gradients. The detailed information of LVDI-UHPLC-MS/MS analysis for pharmacokinetic and cocktail studies is shown in the Supplementary Materials section.

CYP2E1 [2] = biological target: T2, CYP2E1; conditions: IC50 CYP2E1, single components; RLM 0.2 mg/mL, 15 min, triplicate, mean ± SD
Method: as §6

[3] = at the Cmax level in rat plasma, calculated from the dose–response curve

For `CC(C)=CCC[C@](C)(O[C@@H]1O[C@H](CO[C@@H]2O[C@H](CO)[C@@H](O)[C@H](O)[C@H]2O)[C@@H](O)[C@H](O)[C@H]1O)[C@H]1CC[C@]2(C)[C@@H]1[C@H](O)C[C@@H]1[C@@]3(C)CC[C@H](O[C@@H]4O[C@H](CO)[C@@H](O)[C@H](O)[C@H]4O[C@@H]4O[C@H](CO)[C@@H](O)[C@H](O)[C@H]4O)C(C)(C)[C@@H]3CC[C@]12C` [GRb1, ginsenoside Rb1], the IC50 at 15 min (CYP2C19; Sprague-Dawley, rat, pooled rat liver microsomes, pH 7.4, probe omeprazole (1.07 µM, in seven-probe cocktail), IC50 CYP2C19, single components, RLM 0.2 mg/mL, 15 min, triplicate, mean ± SD) was 16.8 ± 2.52 µM, the “Response (% control) CYP2C19” value (CYP2C19; [3]) was 98.58 % control and the IC50 (CYP1A2; IC50 CYP1A2, single components, RLM 0.2 mg/mL, 15 min, triplicate, mean ± SD) was 5.84 ± 0.14 µM. For the same compound, the “Response (% control) CYP1A2” value (CYP1A2; [3]) was 79.30 % control, the IC50 at 15 min (CYP2C9; Sprague-Dawley, rat, pooled rat liver microsomes, pH 7.4, probe tolbutamide (18 µM, in seven-probe cocktail), IC50 CYP2C9, single components, RLM 0.2 mg/mL, 15 min, triplicate, mean ± SD) was 17.6 ± 2.03 µM and the “Response (% control) CYP2C9” value (CYP2C9; [3]) was 99.70 % control. For the same compound, the “Response (% control) CYP2D6” value (CYP2D6; 15 min, pH 7.4) was 98.58 % control, the IC50 at 15 min (CYP2D6; microsomes, pH 7.4, IC50 CYP2D6) was 17.1 ± 1.29 µM and the IC50 at 15 min (CYP2B6; Sprague-Dawley, rat, pooled rat liver microsomes, pH 7.4, probe bupropion (90 µM, in seven-probe cocktail), IC50 CYP2B6, single components, RLM 0.2 mg/mL, 15 min, triplicate, mean ± SD) was 121 ± 10.9 µM. For the same compound, the “Response (% control) CYP2B6” value (CYP2B6; [3]) was 96.46 % control, the “Response (% control) CYP3A4” value (CYP3A4; 15 min) was 99.99 % control and the IC50 at 15 min (CYP3A4; microsomes) was 30 ± 2.47 µM. The “Response (% control) CYP2E1” value (CYP2E1 [1]) was 99.99 % control, the concentration at […] (in vivo; 0.083 h after oral CNP) was 18.7 ± 4.36 ng/mL and the concentration at 0.25 h (in vivo; 0.25 h after oral CNP) was 22.5 ± 4.27 ng/mL. For the same compound, the concentration at 0.5 h (in vivo; 0.5 h after oral CNP) was 36.1 ± 7.79 ng/mL, the concentration at 1 h (in vivo; 1 h after oral CNP) was 45.5 ± 3.29 ng/mL and the concentration at 1.5 h (in vivo; 1.5 h after oral CNP) was 54.6 ± 10.9 ng/mL. The concentration at 2 h (in vivo; 2 h after oral CNP) was 60.5 ± 12 ng/mL, the concentration at 3 h (in vivo; 3 h after oral CNP) was 69.5 ± 9.4 ng/mL and the concentration at 4 h (in vivo; 4 h after oral CNP) was 83.9 ± 31.8 ng/mL. The concentration at 6 h (in vivo; 6 h after oral CNP) was 113 ± 74.6 ng/mL, the concentration at 8 h (in vivo; 8 h after oral CNP) was 80 ± 20.6 ng/mL and the concentration at 12 h (in vivo; 12 h after oral CNP) was 63.9 ± 28.4 ng/mL. It also gave a concentration at 24 h (in vivo; 24 h after oral CNP) of 22.4 ± 4.86 ng/mL, a concentration at 48 h (in vivo; 48 h after oral CNP) of 19.4 ± 3.81 ng/mL and a concentration at 72 h (in vivo; 72 h after oral CNP) of 9.62 ± 1.02 ng/mL. For the same compound, the concentration at 96 h (in vivo; 96 h after oral CNP) was 6.43 ± 2.45 ng/mL, the AUC(0-inf) (in vivo; po, 60 mg/kg) was 2810 ± 618 ng·h/mL and the AUC(0-t) (in vivo; po, 60 mg/kg) was 2320 ± 683 ng·h/mL. The Cmax (in vivo; po, 60 mg/kg) was 113 ± 41.8 ng/mL, the Tmax (in vivo; po, 60 mg/kg) was 5.5 ± 1.8 h and the half-life (in vivo; po, 60 mg/kg) was 36.9 ± 9.65 h. The concentration at 0.25 h (in vivo; po, 60 mg·kg^−1) was 27.9 ± 4.54 ng/mL, the concentration at 0.5 h (in vivo; po, 60 mg·kg^−1) was 38.1 ± 3.67 ng/mL and the concentration at 1 h (in vivo; po, 60 mg·kg^−1) was 53.5 ± 12 ng/mL. For the same compound, the concentration at 1.5 h (in vivo; po, 60 mg·kg^−1) was 58.4 ± 12.4 ng/mL, the concentration at 2 h (in vivo; po, 60 mg·kg^−1) was 61.9 ± 19.5 ng/mL and the concentration at 3 h (in vivo; po, 60 mg·kg^−1) was 78.1 ± 12.8 ng/mL. The concentration at 4 h (in vivo; po, 60 mg·kg^−1) was 86.9 ± 41 ng/mL, the concentration at 6 h (in vivo; po, 60 mg·kg^−1) was 107 ± 42.1 ng/mL and the concentration at 8 h (in vivo; po, 60 mg·kg^−1) was 75.7 ± 26.3 ng/mL. For the same compound, the concentration at 12 h (in vivo; po, 60 mg·kg^−1) was 53.9 ± 19.1 ng/mL, the concentration at 24 h (in vivo; po, 60 mg·kg^−1) was 19.2 ± 5.86 ng/mL and the concentration at 48 h (in vivo; po, 60 mg·kg^−1) was 18.9 ± 8.97 ng/mL. The concentration at 72 h (in vivo; po, 60 mg·kg^−1) was 9.45 ± 3.37 ng/mL, the concentration at 96 h (in vivo; po, 60 mg·kg^−1) was 6.79 ± 1.89 ng/mL and the IC50 (CYP2E1 [2]) was 28 ± 2.39 µM.

Source: article PMC7076352 (Pharmaceutics, 2020)
